Where two headings read alike, the source gives them in different places.

Data on 32 compounds can be found in US6534523B1, “Hepatitis C inhibitor tri-peptides” (Boehringer Ingelheim (Canada) Ltd., priority 1998, dated 2003).

Holding throughout (assay type): biochemical, HCV genotype 1b
In assay [1] the target is HCV NS3 protease (UniProt P26663). On the set-up: rows headed: IC50 (μM); IC50 (μM).
For assay [2] the target is unchanged. On the set-up: rows headed: difference in potency between (1R,2S) compound and its (1S,2S) isomer; other: 801 vs. corresponding (1S,2S) isomer. The following applies: 801 vs. corresponding (1S,2S) isomer. Here is the method:
(§1) Recombinant HCV NS3 Protease/NS4A Cofactor Peptide Radiometric Assay
(§2) The enzyme was cloned, expressed and prepared according to the protocol described in Example 36. The enzyme was stored at −80° C., thawed on ice and diluted just prior to use in the assay buffer containing the NS4A cofactor peptide.
(§3) The substrate used for the NS3 protease/NS4A cofactor peptide radiometric assay, DDIVPC-SMSYTW, is cleaved between the cysteine and the serine residues by the enzyme. The sequence DDIVPC-SMSYTW corresponds to the NS5A/NS5B natural cleavage site in which the cysteine residue in P2 has been substituted for a proline. […] (molar ratio enzyme:cofactor 1:100) in the absence or presence of inhibitors. The separation of substrate from products is performed by adding avidin-coated agarose beads to the assay mixture followed by filtration. […]
(§4) The NS2-NS5B-3′ non coding region was cloned by RT-PCR into the pCR®3 vector (Invitrogen) using RNA extracted from the serum of an HCV genotype 1b infected individual (provided by Dr. Bernard Willems, Hôpital St-Luc, Montréal, Québec, Canada). […] Fluorescence of the N-terminal product was monitored on a Perkin-Elmer LS-50B fluorometer equipped with a 96-well plate reader (excitation wavelength: 325 nm; emission wavelength: 423 nm). […]

For assay [3] the target is unchanged. The following applies: read-out: activity / potency (HCV NS3 protease inhibition); text comparison of P1 configuration. Here is the method:
as §1, §2, §3, §4

HCV NS3 protease, sequence (P26663 1027-1206, other chains not shown): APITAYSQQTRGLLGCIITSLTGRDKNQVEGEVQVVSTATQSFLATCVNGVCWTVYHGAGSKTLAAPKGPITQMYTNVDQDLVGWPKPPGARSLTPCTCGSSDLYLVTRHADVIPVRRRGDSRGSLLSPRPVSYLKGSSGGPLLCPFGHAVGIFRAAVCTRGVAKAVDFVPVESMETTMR

As to `C=CC1CC1(NC(=O)C1CC(Oc2cc(-c3ccccc3)nc3cc(OC)ccc23)CN1C(=O)C(NC(=O)NC(C)(C)C)C(C)(C)C)C(=O)O` (centres unmarked) [compound 801], the IC50 against HCV NS3 protease [1] (Table 8) and on HCV NS3 protease [3] was 6 nM each time. For the same compound, the “difference in potency between (1R,2S) compound and its (1S,2S) isomer” value at HCV NS3 protease [2] was “over 1500 fold”.

Turning to `C=CC1CC1(NC(=O)C1CC(Oc2cc(-c3ccccc3)nc3cc(OC)ccc23)CN1C(=O)C(Nc1cccc(CC#N)c1)C(C)C)C(=O)O` (centres unmarked) [compound 861], the IC50 at HCV NS3 protease [1] (Table 8) is 170 nM.

Compound `C=CC1CC1(NC(=O)C1CC(Oc2cc(-c3ccccc3)nc3cc(OC)ccc23)CN1C(=O)C(NC(=O)OC1CCSC1)C(C)(C)C)C(=O)O` (centres unmarked) [compound 907] gave an IC50 on HCV NS3 protease [1] (Table 9) of 25 nM.

Take `C=CC1CC1(NC(=O)C1CC(Oc2cc(-c3ccccc3)nc3cc(OC)ccc23)CN1C(=O)C(NCc1ccccc1)C(C)C)C(=O)O` (centres unmarked) [compound 826]: on HCV NS3 protease [1] (Table 8), the IC50 is 780 nM.

In the case of `C=CC1CC1(NC(=O)C1CC(Oc2cc(-c3ccccc3)nc3cc(OC)ccc23)CN1C(=O)C(Nc1ccc(NC(C)=O)cc1)C(C)C)C(=O)O` (centres unmarked) [compound 845], the IC50 at HCV NS3 protease [1] (Table 8) came to 180 nM.

Take `C=CC1CC1(NC(=O)C1CC(Oc2cc(C3CCCCC3)nc3cc(OC)ccc23)CN1C(=O)C(NC(=O)OC(C)(C)C)C(C)(C)C)C(=O)O` (centres unmarked) [compound 737]: on HCV NS3 protease [1] (Table 7), the IC50 amounted to 110 nM.

Regarding `C=CC1CC1(NC(=O)C1CC(Oc2cc(-c3ccccc3)nc3cc(OC)ccc23)CN1C(=O)C(NC(=O)OC(C)C(C)(C)C)C(C)(C)C)C(=O)O` (centres unmarked) [compound 910], the IC50 on HCV NS3 protease [1] (Table 9) came out at 56 nM.

With `C=CC1CC1(NC(=O)C1CC(Oc2cc(-c3ccccc3)nc3cc(OC)ccc23)CN1C(=O)C(NC(=O)NC(C)C(C)(C)C)C(C)(C)C)C(=O)O` (centres unmarked) [compound 872], the IC50 at HCV NS3 protease [1] (Table 8) stood at 5 nM.

For the compound `C=CC1CC1(NC(=O)C1CC(Oc2cc(-c3ccccc3)nc3cc(OC)ccc23)CN1C(=O)C(NC(=O)OC(C)(C)C)C(C)(C)C)C(=O)O` (centres unmarked) [compound 901], the IC50 against HCV NS3 protease [1] (Table 9) and on HCV NS3 protease [3] was 25 nM throughout.

At HCV NS3 protease [1] (Table 8), `C=CC1CC1(NC(=O)C1CC(Oc2cc(-c3ccccc3)nc3cc(OC)ccc23)CN1C(=O)C(Nc1cc(F)cc(F)c1)C(C)C)C(=O)O` (centres unmarked) [compound 862] registered an IC50 of 230 nM.

In turn, `C=CC1CC1(NC(=O)C1CC(Oc2cc(N(C)C)nc3ccccc23)CN1C(=O)C(NC(=O)OC(C)(C)C)C(C)(C)C)C(=O)O` (centres unmarked) [compound 624] had an IC50 at HCV NS3 protease [1] (Table 6) of 1300 nM.

The compound `C=CC1CC1(NC(=O)C1CC(Oc2cc(-c3ccccc3)nc3cc(OC)ccc23)CN1C(=O)C(NC(=O)NC(C)C)C(C)(C)C)C(=O)O` (centres unmarked) [compound 807] returned an IC50 against HCV NS3 protease [1] (Table 8) of 10 nM.

`C=CC1CC1(NC(=O)C1CC(Oc2cc(-c3csc(NC(C)C)n3)nc3cc(OC)ccc23)CN1C(=O)C(NC(=O)OC(C)(C)C)C(C)(C)C)C(=O)O` (centres unmarked) [compound 723] returned an IC50 against HCV NS3 protease [1] (Table 7) of 47 nM.

For the compound `C=CC1CC1(NC(=O)C1CC(Oc2cc(-c3ccccc3)nc3cc(OC)ccc23)CN1C(=O)C(NC(=O)C(CC(=O)O)C1CCCCC1)C(C)(C)C)C(=O)O` (centres unmarked) [compound 903], on HCV NS3 protease [1] (Table 9), the IC50 was 5 nM.

`C=CC1CC1(NC(=O)C1CC(Oc2cc(-c3ccccc3)nc3cc(OC)ccc23)CN1C(=O)C(NC(=S)NC(C)(C)C)C(C)(C)C)C(=O)O` (centres unmarked) [compound 813] yielded an IC50 on HCV NS3 protease [1] (Table 8) of 20 nM.

For the compound `C=CC1CC1(NC(=O)C1CC(Oc2cc(-c3cnn(C(C)(C)C)c3)nc3cc(OC)ccc23)CN1C(=O)C(NC(=O)OC(C)(C)C)C(C)(C)C)C(=O)O` (centres unmarked) [compound 720], the IC50 on HCV NS3 protease [1] (Table 7) worked out at 30 nM.

Compound `C=C[C@H]1C[C@]1(NC(=O)[C@@H]1C[C@@H](Oc2ccc3ccccc3c2)CN1C(=O)[C@@H](NC(=O)OC(C)(C)C)C1CCCCC1)C(=O)O` [compound 309] yielded an IC50 on HCV NS3 protease [1] (Table 3) of 5000 nM.

In turn, `C=CC1CC1(NC(=O)C1CC(Oc2cc(OC(C)C)nc3cc(OC)ccc23)CN1C(=O)C(NC(=O)OC(C)(C)C)C(C)(C)C)C(=O)O` (centres unmarked) [compound 730] came in with an IC50 at HCV NS3 protease [1] (Table 7) of 42 nM.

As to `CCC1CC1(NC(=O)C1CC(OCc2cccc3ccccc23)CN1C(=O)C(NC(=O)OC(C)(C)C)C1CCCCC1)C(=O)O` (centres unmarked) [compound 301], the IC50 at HCV NS3 protease [1] (Table 3) was 7700 nM.

As for `C=CC1CC1(NC(=O)C1CC(Oc2cc(-c3ccccc3)nc3cc(OC)ccc23)CN1C(=O)C(Nc1cccc(-c2ccccc2)c1)C(C)C)C(=O)O` (centres unmarked) [compound 854], the IC50 on HCV NS3 protease [1] (Table 8) is 370 nM.

At HCV NS3 protease [1] (Table 6), `C=CC1CC1(NC(=O)C1CC(Oc2cc(-c3csc(NC(C)C)n3)nc3cc(N(C)C)ccc23)CN1C(=O)C(NC(=O)OC(C)(C)C)C(C)(C)C)C(=O)O` (centres unmarked) [compound 629] showed an IC50 of 20 nM.

Take `C=CC1CC1(NC(=O)C1CC(Oc2cc(-c3ccccc3)nc3cc(OC)ccc23)CN1C(=O)C(NC(=O)OC)C(C)(C)C)C(=O)O` (centres unmarked) [compound 830]: the IC50 against HCV NS3 protease [1] (Table 8) came out at 111 nM.

Turning to `C=CC1CC1(NC(=O)C1CC(Oc2cc(-c3cscn3)nc3cc(OC)ccc23)CN1C(=O)C(NC(=O)OC(C)(C)C)C(C)(C)C)C(=O)O` (centres unmarked) [compound 713], the IC50 at HCV NS3 protease [1] (Table 7) turned out to be 26 nM.

At HCV NS3 protease [1] (Table 8), `C=CC1CC1(NC(=O)C1CC(Oc2cc(-c3ccccc3)nc3cc(OC)ccc23)CN1C(=O)C(NC(=O)CC1CCCCC1)C(C)(C)C)C(=O)O` (centres unmarked) [compound 804] registered an IC50 of 32 nM.

Compound `C=CC1CC1(NC(=O)C1CC(Oc2cc(-c3csc(C)n3)nc3ccccc23)CN1C(=O)C(NC(=O)OC(C)(C)C)C(C)(C)C)C(=O)O` (centres unmarked) [compound 621] showed an IC50 at HCV NS3 protease [1] (Table 6) of 58 nM.

For the compound `C=CC1CC1(NC(=O)C1CC(Oc2cc(Cl)nc3ccccc23)CN1C(=O)C(NC(=O)OC(C)(C)C)C(C)(C)C)C(=O)O` (centres unmarked) [compound 610], at HCV NS3 protease [1] (Table 6), the IC50 came to 250 nM.

As for `C=CC1CC1(NC(=O)C1CC(Oc2cc(-c3csc(NC(C)=O)n3)nc3cc(OC)ccc23)CN1C(=O)C(NC(=O)OC(C)(C)C)C(C)(C)C)C(=O)O` (centres unmarked) [compound 719], on HCV NS3 protease [1] (Table 7), the IC50 came to 18 nM.

In the case of `C=CC1CC1(NC(=O)C1CC(Oc2cc(-c3ccccc3)nc3cc(OC)ccc23)CN1C(=O)C(Nc1cccc(CO)c1)C(C)C)C(=O)O` (centres unmarked) [compound 838], at HCV NS3 protease [1] (Table 8), the IC50 was found to be 94 nM.

With `C=CC1CC1(NC(=O)C1CC(Oc2cc(-c3ccccc3)nc3cc(OC)ccc23)CN1C(=O)C(NC(=O)COc1c(C)cccc1C)C(C)(C)C)C(=O)O` (centres unmarked) [compound 810], on HCV NS3 protease [1] (Table 8), the IC50 came to 450 nM.

`C=CC1CC1(NC(=O)C1CC(Oc2cc(-c3csc(C)n3)nc3cc(OC)ccc23)CN1C(=O)C(NC(=O)OC(C)(C)C)C(C)(C)C)C(=O)O` (centres unmarked) [compound 711]: the IC50 on HCV NS3 protease [1] (Table 7) came out at 16 nM.

Compound `C=CC1CC1(NC(=O)C1CC(Oc2cc(-c3ccccc3)nc3cc(OC)ccc23)CN1C(=O)C(Nc1ccc(F)cc1)C(C)C)C(=O)O` (centres unmarked) [compound 840] displayed an IC50 against HCV NS3 protease [1] (Table 8) of 85 nM.

Regarding `C=CC1CC1(NC(=O)C1CC(Oc2cc(-c3ccccc3)nc3cc(OC)ccc23)CN1C(=O)C(Nc1ccccc1F)C(C)C)C(=O)O` (centres unmarked) [compound 864], the IC50 on HCV NS3 protease [1] (Table 8) came to 450 nM.
